The values that follow come from US4200760A, “Imidazolylalkylthioalkylamino-ethylene derivatives” (Bristol-Myers Company, priority 1978, dated 1980).

Data set [1] addresses T1, histamine H2-receptors (Cavia porcellus, UniProt P47747).
T1 construct: The spontaneously beating right atrium was dissected free from other tissues; from tissue; host or cells: isolated spontaneously beating right atrium, male Hartley guinea pig
Nature of the data set: Histamine H2-receptor antagonism, isolated guinea pig right atria assay. The conditions noted are these: for Histamine ED50 after test compound / Concentration-Response Curve Displacement Factor: test compound 3 × 10^-5 M; for Histamine ED50 after test compound: 30 minute incubation; for Concentration-Response Curve Displacement Factor: shift of histamine curve to the right. Also noted: species or system guinea pig (male Hartley strain). The procedure: Subsequent investigations by Hughes and Coret, Proc. Soc. […] Black et al., Agents and Actions, 3, 133 (1973) and Brimblecombe et al., Fed. […] The present comparative studies were carried out using a modification of the procedure reported by Reinhardt et al., Agents and Actions, 4, 217 (1974).
Male Hartley strain guinea pigs (350-450 gm.) were sacrificed by a blow on the head. The heart was excised and placed in a Petri dish of oxygenated (95% O2, 5% CO2) modified Krebs solution (g./liter: NaCl 6.6, KCl 0.35, MgSO4.7 H2 O 0.295, KH2 PO4 0.162, CaCl2 0.238, NaHCO3 2.1 and dextrose 2.09). The spontaneously beating right atrium was dissected free from other tissues and a silk thread (4-O) attached to each end. The atrium was suspended in a 20 ml. muscle chamber containing oxygenated modified Krebs solution maintained at 32° C. Atrial contractions were recorded isometrically by means of a Grass FT 0.03 force displacement transducer and recordings of contractile force and rate were made with a Beckman RP Dynograph.
A resting tension of 1 g. was applied to the atrium and it was allowed to equilibrate for 1 hour.
Concentration-response curve displacement factors were calculated as follows: [formula] […] [formula]

Data set [2] concerns gastric acid output. Nature of the data set: Gastric antisecretory activity in the gastric fistula dog (histamine-induced gastric acid output). It counts as in vivo, dog (beagle). To be noted: for ED50: Canis lupus familiaris, read-out: ED50 (acid output); for Potency Ratio: relative to cimetidine. The procedure: Thomas type [Thomas, J. E., Proc. Soc. exp. Biol. Med., 46, 260 (1941)] stainless steel cannulae are inserted into the stomachs of beagle dogs (10-12 kg.) just orad to the pyloric gland area near the greater curvature to provide a chronic gastric fistula. Animals are allowed to recover for at least two months before any testing is done. Dogs are fasted overnight (~18 hours) with water ad lib prior to each experiment. The dogs are placed in a sling and an eight inch inside needle catheter (C. R. Baird, Inc.) with a two inch 17 gauge needle is inserted into a leg vein for purposes of drug administration. Gastric secretions are collected every 15 minutes by gravity drainage from the opened cannula. […] A modification of the procedure described by Grossman and Konturek, Gastroenterology, 66, 517 (1974) was followed. […] Each 15 minute sample of gastric juice is measured to the nearest 0.5 ml. and titratable acidity against 0.02 N NaOH (endpoint pH 7.0) is measured with an Autoburet and pH meter (radiometer).The percent inhibition of acid output is calculated as described in the pylorus ligated rat procedure.

Data set [3] has as its system gastric acid output. Nature of the data set: Gastric antisecretory activity in the two hour pylorus ligated (Shay) rat. It counts as in vivo, rat (male Long Evans). The conditions noted are these: for ED50: 2 h, read-out: ED50 (acid output); for Potency Ratio: relative to cimetidine. From the text: The pyloric ligation procedure in the rat was designed by Shay et al., Gastroenterology, 5, 53 (1945) for the study of perforating gastric ulcers; however, as the method became known, it was also employed as a means of studying rat gastric secretion, Shay et al., Gastroenterology, 26, 906 (1954), Brodie, D. A., Am. J. Dig. Dis., 11, 231 (1966). A modification of this procedure is presently used to evaluate compounds for gastric antisecretory activity.
Male Long Evans rats, 280-300 gm., are used. The animals are placed in individual cages and fasted for 24 hours with free access to water. Under ether anesthesia, the stomach is reached through a midline incision, and a cotton-thread ligature is placed around the pylorus. […] All compounds are solubilized with one equivalent of HCl and brought to the proper volume with water. The animals are returned to their cages from which the water bottles have been removed and two hours later are sacrificed with ether. The stomach is removed and the two hour gastric collection is drained into a graduated test tube for volume determination. Titratable acidity is measured by titrating a one ml. sample to pH 7.0 with 0.02 N NaOH, using an Autoburet and an electrometric pH meter (Radiometer). Titratable acid output is calculated in microequivalents by multiplying the volume in milliliters by the acid concentration in milliequivalents per liter. The percent inhibition of acid output is calculated as follows: [formula]

In a further data set the test system is gastric secretion. To be noted: animals and man; cited from earlier work.
Data set [4] deals with T1, histamine H2-receptors. The conditions noted are these: Black et al., isolated guinea pig right atria; cited from earlier work.
The conditions of data set [5]: cited from earlier work.
Another data set concerns H2 receptors. The conditions noted are these: cited from earlier work.
Another data set relates to peptic ulcer disease. The conditions noted are these: clinical evaluation, Gray et al.; cited from earlier work.
The next data set relates to agranulocytosis. The conditions noted are these: in vivo; cited from earlier work.
[6] abbreviates: compared with cimetidine and Compound XII.
The mark [7] stands for this setting: iv, histamine-stimulated gastric fistula dog.
The mark [8] stands for this setting: ip, two hour pylorus ligated rat.
Setting [9] is: 1.50 μMole/kg iv (BL-5949: one dog at this dose).

T1 sequence (P47747 whole entry): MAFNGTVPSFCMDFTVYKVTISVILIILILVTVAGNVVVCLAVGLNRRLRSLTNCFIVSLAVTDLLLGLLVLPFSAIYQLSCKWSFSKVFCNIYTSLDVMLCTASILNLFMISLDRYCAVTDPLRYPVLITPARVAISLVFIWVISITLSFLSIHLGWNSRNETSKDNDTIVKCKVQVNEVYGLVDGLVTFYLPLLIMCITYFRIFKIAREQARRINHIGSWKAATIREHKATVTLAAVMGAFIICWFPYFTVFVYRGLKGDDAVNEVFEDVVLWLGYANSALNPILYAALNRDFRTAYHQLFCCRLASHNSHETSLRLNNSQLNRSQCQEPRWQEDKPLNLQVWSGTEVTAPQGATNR

A word on the ED50: it is the dose that gives a 50% effect, or the effect in half of the subjects. On to `C#CCNC(=C[N+](=O)[O-])NCCSCc1[nH]cnc1C` [BL-5949, 1-Nitro-2-(2-propynylamino)-2-{2-[(4-methyl-1H-imidazol-5-yl)methylthio]ethylamino}ethylene], for which the “Potency as histamine H2-receptor antagonist in isolated guinea pig atria (in words)” value on histamine H2-receptors [1] (setting [6]) is listed as “more potent than either cimetidine or Compound XII”. For the same molecule, the “times as active as Compound XII” value at histamine H2-receptors [1] (relative to Compound XII) is reported as “about 2.7 times”. Moreover, the “Histamine ED50 after test compound” value at histamine H2-receptors [1] turned out to be 14.05 µg/mL. The “Concentration-Response Curve Displacement Factor” value on histamine H2-receptors [1] is reported as 46.83. Also, the “Percent Inhibition Acid Output” value with gastric acid output [2] (0.0938 μMole/kg iv) stood at 34%; with gastric acid output [2] (0.1875 μMole/kg iv), 46%; in the data set on gastric acid output [2] (0.375 μMole/kg iv) it was 62%; with gastric acid output [2] (0.75 μMole/kg iv), 68%; in the data set with gastric acid output [3] (2.5 μMole/kg ip), 33%; in the data set on gastric acid output [3] (5 μMole/kg ip), 51%. The “Percent Inhibition Acid Output” value in the data set with gastric acid output [3] (20 μMole/kg ip) is recorded as 87%. The ED50 in the data set on gastric acid output [2] (setting [7]) was 0.24 µmol/kg; in the data set on gastric acid output [3] (setting [8]) it was 4.62 µmol/kg. Moreover, the “Potency as inhibitor of gastric secretion in dogs (in words)” value in the data set with gastric acid output [2] (setting [6]) is recorded as “more potent than either cimetidine or Compound XII”. In addition, the “times more potent than Compound XII” value in the data set on gastric acid output [2] (relative to Compound XII, iv) is given as 3.8 times; in the data set with gastric acid output [3] (relative to Compound XII, ip) it was 3.7 times. In addition, the “Potency Ratio” value in the data set with gastric acid output [2] (iv) is 5.56; with gastric acid output [3] (ip), 2.26. The “Potency as inhibitor of gastric secretion in rats (in words)” value in the data set on gastric acid output [3] (setting [6]) is on record as “more potent than either cimetidine or Compound XII”.
As to `CNC(=S)NCCCCc1cnc[nH]1` [Burimamide], the “Inhibition of gastric secretion / oral activity (in words)” value with gastric secretion was “inhibits gastric secretion in animals and man”. Further, the “Type of antagonism at histamine H2-receptors (in words)” value on histamine H2-receptors [4] is listed as “competitive antagonist of these receptors”. Also, the oral absorption entry in data set [5] (oral) was “poor”.
As for `CNC(=NC#N)NCCSCc1[nH]cnc1C` [Cimetidine], the “H2 antagonist activity (in words)” value in the data set with H2 receptors is recorded as “as effective an H2 antagonist as metiamide”. Further, the “Efficacy in the treatment of peptic ulcer disease (in words)” value in the data set on peptic ulcer disease is on record as “effective therapeutic agent in the treatment of peptic ulcer disease”. Further, in the data set on agranulocytosis, the “Toxicity (agranulocytosis)” value is “without producing agranulocytosis”. Further, the “Histamine ED50 after test compound” value at histamine H2-receptors [1] stood at 4.80 µg/mL. At histamine H2-receptors [1], the “Concentration-Response Curve Displacement Factor” value is on record as 25.26. Also, the “Percent Inhibition Acid Output” value is reported as 37% with gastric acid output [2] (0.75 μMole/kg iv); 53% with gastric acid output [2] (setting [9]); 73% in the data set with gastric acid output [2] (3.0 μMole/kg iv); 9% in the data set on gastric acid output [3] (2.5 μMole/kg ip); 53% in the data set on gastric acid output [3] (5 μMole/kg ip); 41% in the data set with gastric acid output [3] (10 μMole/kg ip). For the same molecule, the “Percent Inhibition Acid Output” value in the data set on gastric acid output [3] (20 μMole/kg ip) amounted to 57%; in the data set with gastric acid output [3] (40 μMole/kg ip), 72%. For the same molecule, the ED50 with gastric acid output [2] (iv) is 1.33 µmol/kg; in the data set on gastric acid output [3] (Rattus norvegicus, ip) it was 10.4 µmol/kg. Also, in data set [5] (in vivo), the half-life entry is recorded as “relatively short”.
Take `CNC(=C[N+](=O)[O-])NCCSCc1[nH]cnc1C` [Compound XII]: at histamine H2-receptors [1], the “Histamine ED50 after test compound” value was determined as 4.30 µg/mL. On histamine H2-receptors [1], the “Concentration-Response Curve Displacement Factor” value was 17.92. For the same molecule, the “Percent Inhibition Acid Output” value with gastric acid output [2] (0.375 μMole/kg iv) was determined as 22%; in the data set on gastric acid output [2] (0.75 μMole/kg iv), 42%; in the data set on gastric acid output [2] (setting [9]) it was 73%; in the data set on gastric acid output [3] (10 μMole/kg ip) it was 25%; with gastric acid output [3] (20 μMole/kg ip), 64%; with gastric acid output [3] (40 μMole/kg ip), 86%. The ED50 in the data set with gastric acid output [2] (setting [7]) was found to be 0.9 µmol/kg; in the data set with gastric acid output [3] (setting [8]), 17.2 µmol/kg. The figures for the “Potency Ratio” value with gastric acid output [2] (iv) and in the data set with gastric acid output [3] (ip) were 1.47 and 0.61, respectively.
`NCCc1c[nH]cn1` [Histamine]: the “Histamine ED50 (control, before test compound)” value at histamine H2-receptors [1] (control of Compound XII series, N=2, contractile rate) is 0.24 µg/mL.
With `CNC(=S)NCCSCc1[nH]cnc1C` [Metiamide], the “H2 antagonist activity (in words)” value in the data set with H2 receptors is given as “more potent than burimamide”. For the same molecule, the “Inhibition of gastric secretion / oral activity (in words)” value in the data set on gastric secretion was “orally active in man”. For the same molecule, the “Toxicity (agranulocytosis)” value with agranulocytosis is “toxicity (agranulocytosis)”.
